The values below come from ChEMBL document CHEMBL1133233, “The design and synthesis of thrombin inhibitors: the introduction of in vivo efficacy and oral bioavailability into benzthiazolylalanine inhibitors” (Bioorg Med Chem Lett, 2000).

A short description of data set [1]: Effectiveness to inhibit coagulation in plasma measured as activated partial thromboplastin time (APTT). The format is functional.
Another data set concerns the target Prothrombin (Homo sapiens, UniProt P00734). Nature of the data set: Evaluated for the binding affinity against thrombin.
A short description of data set [2]: Bioavailability in rat (intraduodenal administration). The format is ADME, organism-based. As to conditions: in vivo.
Data set [3] is described as follows: Oral bioavailability in rat. The format is ADME, organism-based. The settings on record: in vivo.
The nature of data set [4]: Aqueous solubility at pH 7. The format is physicochemical.
The subject of data set [5] is Rattus norvegicus. The data set is described as follows: Inhibition of platelet deposition was determined on arterial thrombosis in the rat at 20 mg/kg oral administration using an acute model of injury induced thrombus formation. The format is functional. As to conditions: read-out: Inhibition.
Data set [6] relates to Rattus norvegicus. The data set is described as follows: Inhibition of fibrin deposition was determined after 1 hr on arterial thrombosis in the rat at 20 mg/kg oral administration using an acute model of injury induced thrombus formation. The format is functional.
Data set [7] has as its system Rattus norvegicus. Nature of the data set: Inhibition of fibrin deposition was determined after 2 hr on arterial thrombosis in the rat at 20 mg/kg oral administration using an acute model of injury induced thrombus formation. It is filed as functional.
In data set [8] the test system is Rattus norvegicus. The data set is described as follows: Inhibition of platelet deposition was determined on arterial thrombosis in the rat at 10 mg/kg oral administration using an acute model of injury induced thrombus formation. The format is functional.
A short description of data set [9]: Aqueous solubility at pH 2. The format is physicochemical.
Another data set addresses Plasminogen (Homo sapiens, UniProt P00747). Nature of the data set: Inhibitory activity against plasmin.
A further data set addresses Serine protease 1 (Homo sapiens, UniProt P07477). Nature of the data set: Inhibitory activity against trypsin.
A short description of data set [10]: Inhibitory activity against TF/VIIa.
A further data set addresses Coagulation factor X (Homo sapiens, UniProt P00742). Nature of the data set: Inhibitory activity against Coagulation factor X.

Values after ≈ are worked out from the molar mass of the structure shown.

Chain of Serine protease 1 (P07477 whole entry): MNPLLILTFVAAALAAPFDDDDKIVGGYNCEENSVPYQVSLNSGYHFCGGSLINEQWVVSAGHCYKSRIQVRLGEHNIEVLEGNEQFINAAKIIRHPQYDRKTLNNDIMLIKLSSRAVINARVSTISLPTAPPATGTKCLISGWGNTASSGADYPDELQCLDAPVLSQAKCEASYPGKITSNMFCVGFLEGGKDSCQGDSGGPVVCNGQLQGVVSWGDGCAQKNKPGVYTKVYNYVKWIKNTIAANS
Chain of Coagulation factor X (P00742 41-179 limits assumed): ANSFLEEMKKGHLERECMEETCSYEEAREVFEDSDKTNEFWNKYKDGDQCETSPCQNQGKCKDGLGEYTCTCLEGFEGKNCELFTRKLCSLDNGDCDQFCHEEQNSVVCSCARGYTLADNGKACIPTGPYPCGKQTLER
Chain of Coagulation factor X (P00742 235-488 limits assumed): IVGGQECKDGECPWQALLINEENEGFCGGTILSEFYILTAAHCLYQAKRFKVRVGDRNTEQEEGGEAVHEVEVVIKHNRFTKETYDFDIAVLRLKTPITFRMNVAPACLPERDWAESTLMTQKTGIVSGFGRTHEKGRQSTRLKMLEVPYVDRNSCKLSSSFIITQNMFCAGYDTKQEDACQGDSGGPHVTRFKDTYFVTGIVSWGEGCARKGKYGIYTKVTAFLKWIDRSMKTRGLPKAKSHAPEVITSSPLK
Chain of Plasminogen (P00747 97-580 limits assumed): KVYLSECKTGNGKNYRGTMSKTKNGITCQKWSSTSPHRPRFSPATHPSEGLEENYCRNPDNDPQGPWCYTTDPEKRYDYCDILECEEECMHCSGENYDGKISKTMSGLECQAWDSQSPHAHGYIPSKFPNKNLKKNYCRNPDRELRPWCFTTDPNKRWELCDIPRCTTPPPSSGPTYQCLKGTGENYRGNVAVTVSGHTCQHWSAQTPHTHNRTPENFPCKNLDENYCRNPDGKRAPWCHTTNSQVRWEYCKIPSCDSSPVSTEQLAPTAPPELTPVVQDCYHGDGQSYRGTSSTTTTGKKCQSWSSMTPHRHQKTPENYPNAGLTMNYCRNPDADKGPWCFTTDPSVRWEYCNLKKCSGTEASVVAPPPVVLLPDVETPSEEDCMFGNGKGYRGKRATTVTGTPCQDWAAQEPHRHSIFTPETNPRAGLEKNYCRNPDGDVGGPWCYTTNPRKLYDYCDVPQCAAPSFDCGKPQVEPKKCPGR
Chain of Plasminogen (P00747 581-810 limits assumed): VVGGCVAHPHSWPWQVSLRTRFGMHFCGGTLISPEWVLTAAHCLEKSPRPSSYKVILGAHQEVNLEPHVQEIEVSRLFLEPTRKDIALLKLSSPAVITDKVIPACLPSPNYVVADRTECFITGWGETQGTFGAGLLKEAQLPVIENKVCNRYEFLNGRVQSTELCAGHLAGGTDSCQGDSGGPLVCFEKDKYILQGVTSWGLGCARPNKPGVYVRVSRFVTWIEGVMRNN

Turning to `CC1(C)CNc2c(cc(CCCO)cc2S(=O)(=O)N[C@@H](Cc2nc3ccccc3s2)C(=O)N2CCC(CCF)CC2)C1`, the APTT in data set [1] was 19 µM. Moreover, the Ki (commonly a dissociation constant, usually derived from enzyme kinetics or from competition with a known ligand) at Prothrombin is 0.119 µM.

As for `CC1(C)CNc2c(cc(CC(=O)O)cc2S(=O)(=O)N[C@@H](Cc2nc3ccccc3s2)C(=O)N2CCC(CCF)CC2)C1`, the APTT in data set [1] worked out at 14.9 µM. The affinity at Prothrombin corresponds to a Ki of 0.5 µM.

The molecule `CC(=O)N1CCN(C(=O)CCc2cc3c(c(S(=O)(=O)N[C@@H](Cc4nc5ccccc5s4)C(=O)N4CCC(CCF)CC4)c2)NCC(C)(C)C3)CC1` gave an APTT in data set [1] of 7.5 µM. Besides, on Prothrombin, the inhibitory constant (Ki) is 0.034 µM.

Regarding `CC1(C)CNc2c(cc(CCC(=O)O)cc2S(=O)(=O)N[C@@H](Cc2nc3ccccc3s2)C(=O)N2CCC(CCF)CC2)C1`, the values for the bioavailability in data set [2] and in [3] were 50% and 0%, respectively. The concentration in solution in [4] (solubility) was 5.15 µg/mL (≈ 8.16 µM). Also, the APTT in data set [1] stood at 10.7 µM. Further, the inhibition constant Ki at Prothrombin came to 0.082 µM.

`CC1(C)CNc2c(cc(CCC(=O)N3CCN(Cc4ccncc4)CC3)cc2S(=O)(=O)N[C@@H](Cc2nc3ccccc3s2)C(=O)N2CCC(CCF)CC2)C1` registered an APTT in data set [1] of 9.7 µM. Further, at Prothrombin, the affinity corresponds to a Ki of 0.027 µM.

`CC1(C)CNc2c(cc(CCO)cc2S(=O)(=O)N[C@@H](Cc2nc3ccccc3s2)C(=O)N2CCC(CCF)CC2)C1` showed an APTT in [1] of 13.7 µM. The same molecule gave an inhibition constant (Ki) on Prothrombin of 0.039 µM.

For the molecule `CC1(C)CNc2c(cc(C(=O)O)cc2S(=O)(=O)N[C@@H](Cc2nc3ccccc3s2)C(=O)N2CCC(CCF)CC2)C1`, in data set [1], the APTT was determined as 13 µM. At Prothrombin, this molecule registered a Ki of 0.359 µM.

Take `CC1(C)CNc2c(cc(CO)cc2S(=O)(=O)N[C@@H](Cc2nc3ccccc3s2)C(=O)N2CCC(CCF)CC2)C1`: in data set [1], the APTT was found to be 16.8 µM. On Prothrombin, this molecule yielded an inhibition constant Ki of 0.064 µM.

Take `CNC(=O)OCc1cc2c(c(S(=O)(=O)N[C@@H](Cc3nc4ccccc4s3)C(=O)N3CCC(CCF)CC3)c1)NCC(C)(C)C2`: the APTT in data set [1] came out at 20.7 µM. At Prothrombin, affinity was put at a Ki of 0.077 µM.

Consider `CC1(C)CNc2c(cc(CCCC(=O)O)cc2S(=O)(=O)N[C@@H](Cc2nc3ccccc3s2)C(=O)N2CCC(CCF)CC2)C1`, for which the APTT in data set [1] worked out at 16.6 µM. At Prothrombin, this molecule returned a Ki of 0.094 µM.

In data set [1], `CN(C)C(=O)CCc1cc2c(c(S(=O)(=O)N[C@@H](Cc3nc4ccccc4s3)C(=O)N3CCC(CCF)CC3)c1)NCC(C)(C)C2` came in with an APTT of 9.2 µM. Moreover, the Ki on Prothrombin was 0.034 µM.

Take `CC1(C)CNc2c(cc(CCC(=O)N3CCN(CC(=O)N4CCOCC4)CC3)cc2S(=O)(=O)N[C@@H](Cc2nc3ccccc3s2)C(=O)N2CCC(CCF)CC2)C1` [listing 1 of 2 here]: the inhibition in vivo at 20 mg/kg is 60% with Rattus norvegicus [5], 48% in the data set on Rattus norvegicus [6] and 43% with Rattus norvegicus [7]. In the data set with Rattus norvegicus [8], this molecule had an inhibition in vivo at 10 mg/kg of 60%.

On to `CC1(C)CNc2c(cccc2S(=O)(=O)N[C@@H](Cc2nc3ccccc3s2)C(=O)N2CCC(CCF)CC2)C1`, for which, in data set [1], the APTT worked out at 26.5 µM.

In turn, `CC1(C)CNc2c(cccc2S(=O)(=O)N[C@@H](CCCN=C(N)N)C(=O)N2CCC(CCF)CC2)C1` [CGH-728] came in with an APTT in [1] of 2.1 µM. This molecule yielded an inhibition constant Ki on Prothrombin of 0.006 µM.

The molecule `CCOC(=O)c1cc2c(c(S(=O)(=O)N[C@@H](Cc3nc4ccccc4s3)C(=O)N3CCC(CCF)CC3)c1)NCC(C)(C)C2` showed an APTT in [1] of 105.4 µM.

On to `COCCOCOCc1cc2c(c(S(=O)(=O)N[C@@H](Cc3nc4ccccc4s3)C(=O)N3CCC(CCF)CC3)c1)NCC(C)(C)C2`, for which the APTT in [1] was 18 µM. Besides, the Ki on Prothrombin is 0.125 µM.

Regarding `CC1(C)CNc2c(cc(CCC(=O)N3CCN(CC(=O)N4CCOCC4)CC3)cc2S(=O)(=O)N[C@@H](Cc2nc3ccccc3s2)C(=O)N2CCC(CCF)CC2)C1` [listing 2 of 2 here], the bioavailability (commonly the share of a dose that reaches the circulation, judged against a reference dose that is usually intravenous) is 38% in data set [2] and 28% in data set [3]. The solubility (in general, the dissolved amount per volume that the medium holds) stood at 15000 µg/mL (≈ 18200 µM) in [9] and 130 µg/mL (≈ 157 µM) in [4]. The inhibitory constant (Ki) on Plasminogen was 212 µM; at Prothrombin, 0.057 µM; on Serine protease 1, 153 µM; in [10], 11600 µM; at Coagulation factor X it was not below 200 µM. The APTT in [1] came to 7 µM.

On to `CC1(C)CNc2c(cc(CCNC(N)=O)cc2S(=O)(=O)N[C@@H](Cc2nc3ccccc3s2)C(=O)N2CCC(CCF)CC2)C1`, for which the APTT in data set [1] was determined as 10.2 µM. The same molecule gave a Ki at Prothrombin of 0.047 µM.
